# Assay results as given in patent publication US20180362488A1, “STEREOISOMER OF FLOCOUMAFEN, COMPOSITION AND RODENTICIDE BAIT COMPRISING SAME, AND METHOD FOR CONTROLLING TARGET RODENT PESTS” (priority 2015, published 2018).
# Type: in vivo, Sprague-Dawley rats
# Conditions: compared with enantiomer E4 and flocoumafen
# Experimental: The configurational stereoisomers of flocoumafen are separated by high-pressure liquid chromatography using a LUX® Cellulose-4 chiral column (00F-4490-B0, Phenomenex, Le Pecq, France) as stationary phase and a mixture formed from acetonitrile (A) and water comprising 0.1% by volume of formic acid (B), with an AB volume ratio of 92/8, as mobile phase with a flow rate of the liquid mobile phase in the chromatography column of 0.25 mL/minute. 1 μL of extract to be analysed at a concentration of 1 μg/mL of acetonitrile is injected. Detection is performed by tandem mass spectrometry (MS/MS) in negative electrospray ionization (ESI) mode. The temperature of the nebulizer gas is 350° C. and its flow rate is 8 L/minute. The pressure of the nebulizer gas is brought to 2700 hPa. In particular, the MRM (“Multiple Reaction Monitoring”) transitions m/z 541.1→382.1 and m/z 541.1→161, corresponding to the flocoumafen signal, are analysed.
# About 0.525 g (±0.025 g) of rat liver is weighed out accurately and placed in a 50 mL polypropylene tube. 10 mL of acetone are added and the suspension is homogenized using an Ultra-Turrax® homogenizer/disperser for a time of about 30 seconds. The homogenizer/disperser shaft is rinsed with hot water and then twice with 20 mL of acetone in a polypropylene tube. The homogenate is centrifuged for 5 minutes at a centrifugation speed of 3000 rpm (revolutions per minute). […]
smiles,measurement,value
"O=c1oc2ccccc2c(O)c1C1CC(c2ccc(OCc3ccc(C(F)(F)F)cc3)cc2)Cc2ccccc21 (single isomer, unassigned) [Enantiomer E2]",Persistence in the liver of the male and female rats,"lower than the persistence of enantiomer E4 of said diastereoisomer D1,4 and lower than the persistence of flocoumafen"
